Results taken from PubChem BioAssay (NCI).
Where “and” joins values, the source holds several entries; their conditions need not be identical. Identical values can stand only once.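 96-well plates; 48 h exposure; 5 concentrations. Endpoints by linear interpolation between flanking doses. Not reached: highest tested concentration assigned. GI50 = concentration required for 50% inhibition of growth. TGI: concentration producing complete growth inhibition.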

Tests used:
Assay in all cases: NCI anticancer screen, dose series, 48 h
NCI-H23 lung = system: NCI-H23 lung
OVCAR-4 ovarian = system: OVCAR-4 ovarian
A549 NSCLC = system: A549 NSCLC
KM12 colon = system: KM12 colon
UO-31 renal = system: UO-31 renal
SK-MEL-28 melanoma = system: SK-MEL-28 melanoma
ACHN renal = system: ACHN renal
NCI-H226 lung = system: NCI-H226 lung
MCF7 breast = system: MCF7 breast
DU-145 prostate = system: DU-145 prostate

Row | SMILES | TGI (NCI-H23 lung) | TGI (OVCAR-4 ovarian) | TGI (A549 NSCLC) | TGI (KM12 colon) | TGI (UO-31 renal) | TGI (SK-MEL-28 melanoma) | TGI (ACHN renal) | TGI (NCI-H226 lung) | GI50 (NCI-H23 lung) | GI50 (OVCAR-4 ovarian) | GI50 (A549 NSCLC) | GI50 (KM12 colon) | GI50 (UO-31 renal) | GI50 (SK-MEL-28 melanoma) | GI50 (ACHN renal) | GI50 (NCI-H226 lung) | GI50 (MCF7 breast) | TGI (MCF7 breast) | GI50 (DU-145 prostate) | TGI (DU-145 prostate)
1 | COc1ccc2nc(NC(=O)C(=O)C(C#N)c3ccc(CC#N)cc3)sc2c1 (centres undefined) | > 100 µM | > 100 µM | > 100 µM | > 100 µM | > 100 µM | > 100 µM | > 100 µM | > 100 µM |  |  |  |  |  |  |  |  |  |  |  | 
2 | COc1cc2ccc(C(=O)O)cc2cc1OC | > 100 µM | > 100 µM | > 100 µM | > 100 µM | > 100 µM | > 100 µM | > 100 µM | > 100 µM |  |  |  |  |  |  |  |  |  |  |  | 
3 | Cc1cccc2c1C(=O)OC2(c1cccc2ccccc12)c1cccc2ccccc12 | > 100 µM | > 100 µM | > 100 µM | > 100 µM | > 100 µM | > 100 µM | > 100 µM | > 100 µM |  |  |  |  |  |  |  |  |  |  |  | 
4 | CCOc1c(Cc2ccccc2)c(=O)n2c3ccccc3n3c(=O)n(C)c(=O)c1c23 | > 100 µM | > 100 µM | > 100 µM | > 100 µM | > 100 µM | > 100 µM | > 100 µM |  |  |  |  |  |  |  |  |  |  |  |  | 
5 | O=C1/C(=C/c2ccccc2)CN(C(=O)Oc2ccccc2)C/C1=C\c1ccccc1 | > 100 µM | > 100 µM | > 100 µM | > 100 µM | 88.9 µM | > 100 µM | > 100 µM |  |  |  |  |  |  |  |  |  |  |  |  | 
6 | CCc1cc2c(c3[nH]ccc13)[C@@H](C)C[C@H]2C | 37.8 µM |  | 42.2 µM | 36.5 µM | 32.3 µM | 30 µM | 30.9 µM | 31.8 µM |  |  |  |  |  |  |  |  |  |  |  | 
7 | CC(C)N(C(=O)C12C3C4C5C3C1(C(=O)N(C(C)C)C(C)C)C5C42)C(C)C (centres undefined) | > 100 µM | > 100 µM | > 100 µM | > 100 µM | > 100 µM | > 100 µM | > 100 µM | > 100 µM |  |  |  |  |  |  |  |  |  |  |  | 
8 | CC(=O)[O-].CC(=O)[O-].CC(=O)[O-].CC(=O)[O-].CO.CO.CO.[Rh+2].[Rh+2].c1ccc(-c2ccccn2)nc1 | > 100 µM | > 100 µM | > 100 µM | > 100 µM | > 100 µM | > 100 µM | > 100 µM | > 100 µM | > 100 µM | > 100 µM | > 100 µM | > 100 µM | > 100 µM | > 100 µM | > 100 µM | > 100 µM |  |  |  | 
9 | CC(C)S(=O)(=O)ON1C(=O)c2ccc([N+](=O)[O-])cc2C1=O | > 100 µM | > 100 µM | > 100 µM | > 100 µM | > 100 µM | > 100 µM | > 100 µM | > 100 µM |  |  |  |  |  |  |  |  |  |  |  | 
10 | COC(=O)C([O][Ge]([CH3])([CH3])[CH3])c1ccccc1 (centres undefined) | > 100 µM | > 100 µM | > 100 µM | > 100 µM | > 100 µM | > 100 µM | > 100 µM | > 100 µM | > 100 µM | > 100 µM | > 100 µM | > 100 µM | > 100 µM | > 100 µM | > 100 µM | > 100 µM |  |  |  | 
11 | CCCN(CCC)c1c([N+](=O)[O-])cc(C(N)=O)cc1[N+](=O)[O-] | > 100 µM | > 100 µM | > 100 µM | > 100 µM | > 100 µM | > 100 µM | > 100 µM | > 100 µM |  |  |  |  |  |  |  |  |  |  |  | 
12 | CCN(CC)CCn1nc2c3c(cccc3c1=O)-c1ccccc1-2 | 8.98 µM | 26 µM | 19.8 µM | > 50 µM | > 50 µM | 15.6 µM |  | 2.58 µM | 1.82 µM | 3.33 µM | 1.05 µM | 2.84 µM | 1.25 µM | 2.56 µM |  | 1.18 µM | 0.715 µM | 3.51 µM | 2.11 µM | > 50 µM
13 | CC1(C)CC(=O)C=C(NC(=O)c2ccccc2)C1 | > 100 µM | > 100 µM | > 100 µM | > 100 µM | > 100 µM | > 100 µM |  |  |  |  |  |  |  |  |  |  |  |  |  | 
14 | Cc1c(-c2ccnc(N)n2)c2c(n1-c1ccccc1)C(=O)c1ccccc1C2=O |  | > 100 µM | > 100 µM | 45.8 µM | 51.1 µM | > 100 µM | 77.7 µM |  |  | 58.3 µM | 36.1 µM | 16.8 µM | 13.5 µM | 41.8 µM | 19.6 µM |  |  |  | 21.1 µM | 60.7 µM
15 | CCC[CH2][Sn]1([CH2]CCC)[O]N=Cc2ccccc2[O]1 | 1.68 µM | 3.51 µM | 3.8 µM | 2.78 µM | 2.61 µM | 1.87 µM | 2.43 µM | 3.49 µM | 0.413 µM | 2.03 µM | 1.84 µM | 1.47 µM | 1.33 µM | 0.58 µM | 1.18 µM | 1.93 µM |  |  |  | 
16 | COc1cc2cc(C(=O)N3C[C@H](CCl)c4c3cc(O)c3ccccc43)[nH]c2c(OC)c1OC | 0.234 µM and 0.0927 µM | 2.76 µM and 14.6 µM |  | 0.677 µM and 1.37 µM | 0.543 µM | 1.99 µM | 0.581 µM | 0.504 µM and 3.38 µM | < 0.01 µM | 0.0612 µM |  | 0.0425 µM |  |  |  | 1.79 µM | < 0.01 µM | 10.2 µM | < 0.01 µM | 1.53 µM and 0.213 µM
17 | CC1CCCc2c(CC3CC(=O)NC(=O)C3)nc(N)nc21 (centres undefined) | > 100 µM | > 100 µM | > 100 µM | > 100 µM |  | > 100 µM |  | > 100 µM |  |  |  |  |  |  |  |  |  | > 100 µM |  | > 100 µM
18 | O=C1CCC(=O)C(C(=O)CCC(=O)Nc2ccc(Cl)cc2)C1 (centres undefined) | > 100 µM | > 100 µM | > 100 µM | > 100 µM | > 100 µM |  | > 100 µM | > 100 µM |  |  |  |  |  |  |  |  |  |  |  | 
19 | N#CCCCCCn1c2ccccc2c2c3c(c4c5ccccc5[nH]c4c21)C(=O)N(O)C3=O | 5.54 µM | 13 µM | 8.12 µM | 3.39 µM |  | 6.61 µM | 2.33 µM | 4.74 µM | 1.55 µM | 1.9 µM | 2.78 µM | 1.37 µM |  | 1.8 µM | 0.851 µM | 1.93 µM |  |  | 1.06 µM | 12.2 µM
20 | O=C1NC(=Nc2ccccc2Cl)SC1C(=O)Nc1ccc([N+](=O)[O-])cc1[N+](=O)[O-] (centres undefined) | > 100 µM | > 100 µM | > 100 µM | > 100 µM | > 100 µM | > 100 µM | > 100 µM | > 100 µM |  |  |  |  |  |  |  |  |  |  |  | 
